Assay results from paper PMC7515829, “HKDC1 C-terminal based peptides inhibit extranodal natural killer/T-cell lymphoma by modulation of mitochondrial function and EBV suppression” (Leukemia, 2020).
Like-named read-outs stand apart in the source and are kept apart here.

Legend:
MNCs from ENKTL patients = conditions: read-out: IC50 (µM) ENKTL, half-maximal cell death activity, peptides 0.1–15 µM, 6 h, PI staining, FACS, mean ± SEM, n in cell
Description: (§1) We investigated the potential role of HKDC1-based peptides in ENKTL cells that were isolated from the MNCs of ENKTL patients or SNK6 cell line. Three different kinds of HKDC1-based targeting peptides, including the last 15 aa at either the N-terminal (HKN15) or C-terminal (HKC15), or the last eight aa at the C-terminal (HKC8) were selected; four different kinds of cell-penetrating sequences were employed to deliver the HKDC1-based peptides, including Antp (a 16 penetrating residue long sequence from the Drosophila antennapedia-homeodomain), penetration-accelerating segment, TAT (HIV-1 TAT sequence), and Tf (the Tf receptor (TfR) internalization sequence) sequences. All of the aa with the D-configuration (marked as D) were synthesized as retro-inverso peptides. […] We then evaluated the toxic effect of two peptides (including Tf-D-HKC15 and Tf-D-HKC8) on different kinds of primary and cancer cell lines (see details in Table 2). […] We also evaluated the peptide delivery efficiency using ^125I-labeled uptake assay for both Tf-D-HKC8 and Tf-D-HKC15 peptides.
(§2) Measurement of apoptosis and cell death. Apoptosis was evaluated by TUNEL assay using the In Situ Cell Death Detection Kit™ (Roche). Cells were fixed in 4% paraformaldehyde and labeled with TUNEL reagents. Stained cells were photographed by a fluorescence microscope (11). For cell death analysis, the propidium iodide (PI) staining was performed by addition of 6.25 µg/ml of PI to the cells, and cell death was immediately evaluated by FACS analysis (3).

SNK6 cells [1] = test system: SNK6 cells
Description: as §1, §2

SNK6 cells [2] = assay: Colony formation in soft agar; format: cell-based, human; conditions: 0.5 µM peptide, 6 h, vs CTL, n = 5 (Fig. 5e)
Experimental: Colony formation in soft agar. This assay is a method for evaluating the ability of individual cell lines to grow in an anchorage-independent manner. Cells were resuspended in DMEM containing 5% FBS with 0.3% agarose and layered on top of 0.5% agarose in DMEM on 60-mm plates. 1000 cells were seeded in 60mm soft agar dishes for 30 days. The dishes were examined twice per week, and colonies that grew beyond […] in diameter were scored as positive. Each experiment was done in quadruplicate (8).

SNK6 xenograft [3] = assay: SNK6 xenograft tumor volume; format: in vivo, mouse; conditions: nude mice, n = 5; for tumor volumes on day 36: intratumoral 50 µM peptide every 2 days from day ~18, day 36, vs CTL; for tumor volumes on day 48: intratumoral 50 µM peptide every 2 days from day ~18, day 48, vs CTL
Experimental: To measure malignant SNK6 xenograft growth, 100 µl of 1 × 10^5 SNK6 cells in PBS were mixed with 100 µl growth factor-reduced basement membrane matrix (Matrigel™, BD Biosciences) resulting in 200 µl of solution that was injected subcutaneously along the mouse flank at each intended tumor site. Tumor size was measured using a digital caliper and volume was calculated, and mice were randomly divided into four groups (n = 9 per group) when the tumor volume reached 50–100 mm^3 on day ~18 after tumor inoculation and given treatment as follows: Group 1 (control (CTL)) was intratumorally injected with HBSS buffer (5.33 mM KCl, 0.44 mM KH2PO4, 138 mM NaCl, 4 mM NaHCO3, 0.3 mM Na2HPO4, and 5.6 mM glucose, pH 7.3) containing 0.05% DMSO; Group 2 (Tf-D-HKN15) received HBSS buffer containing 0.05% DMSO with 50 µM Tf-D-HKN15 peptides; Group 3 (Tf-D-HKC15) received HBSS buffer containing 0.05% DMSO with 50 µM Tf-D-HKC15 peptides; Group 4 (Tf-D-HKC8) received HBSS buffer containing 0.05% DMSO with 50 µM Tf-D-HKC8 peptides. The xenografts were injected (two points, 20 µl per tumor) every 2 days. Beginning on the day of inoculation, mouse weight and tumor volume were monitored every 2 days. Mice were monitored for changes in body weight and sacrificed when values fell below 20% of their initial weight; the survival curve was calculated and the final tumor tissues were isolated for biomedical analysis.
To measure the malignant SNK6 xenograft growth, the 100µl of 1x10^5 SNK6 cells in PBS were mixed with 100µl growth factor-reduced basement membrane matrix (Matrigel™, BD Biosciences) resulting in 200µl of solution that was injected subcutaneously along the mouse flank at each intended tumor site. Tumor size was measured using a digital caliper and volume was calculated, and mice were randomly divided into 4 groups (n=9 per group) when the tumor volume reached 50-100 mm^3 on day ~18 after tumor inoculation: Group 1 (CTL) was intratumorally injected with HBSS buffer (5.33 mM KCl, 0.44 mM KH2PO4, 138 mM NaCl, 4 mM NaHCO3, 0.3 mM Na2HPO4, and 5.6 mM glucose, pH 7.3) containing 0.05% DMSO; Group 2 (Tf-D-HKN15) received HBSS buffer containing 0.05% DMSO with 50 µM Tf-D-HKN15 peptides; Group 3 (Tf-D-HKC15) received HBSS buffer containing 0.05% DMSO with 50 µM Tf-D-HKC15 peptides; Group 4 (Tf-D-HKC8) received HBSS buffer containing 0.05% DMSO with 50 µM Tf-D-HKC8 peptides. The xenografts were injected (two points, 20 µL per tumor) every two days. Beginning on the day of inoculation, mouse weight and tumor volume were monitored every 2 days. Mice were monitored for changes in body weight and sacrificed when values fell below 20% of their initial weight, the survival curve was calculated and the final tumor tissues were isolated for biomedical analysis.

SNK6 xenograft [4] = assay: Mouse survival, Kaplan–Meier analysis; format: in vivo; conditions: nude mice, intratumoral 50 µM peptide every 2 days from day ~18, compared with CTL group, n = 9
Experimental: Statistical analysis. The data was given as mean ± SEM; all of the experiments were performed at least in quadruplicate unless otherwise indicated. One-way ANOVA followed by the Bonferroni post hoc test was used to determine statistical significance of different groups. The mouse survival curve was determined through Kaplan-Meier survival analysis using SPSS 22 software, and a P value < 0.05 was considered significant (8).

Zta = conditions: SNK6 xenograft, nude mice; intratumoral 50 µM peptide every 2 days from day ~18; tissue day 50; IHC vs CTL; n = 3
Experimental: To measure malignant SNK6 xenograft growth, 100 µl of 1 × 10^5 SNK6 cells in PBS were mixed with 100 µl growth factor-reduced basement membrane matrix (Matrigel™, BD Biosciences) resulting in 200 µl of solution that was injected subcutaneously along the mouse flank at each intended tumor site. Tumor size was measured using a digital caliper and volume was calculated, and mice were randomly divided into four groups (n = 9 per group) when the tumor volume reached 50–100 mm^3 on day ~18 after tumor inoculation and given treatment as follows: Group 1 (control (CTL)) was intratumorally injected with HBSS buffer (5.33 mM KCl, 0.44 mM KH2PO4, 138 mM NaCl, 4 mM NaHCO3, 0.3 mM Na2HPO4, and 5.6 mM glucose, pH 7.3) containing 0.05% DMSO; Group 2 (Tf-D-HKN15) received HBSS buffer containing 0.05% DMSO with 50 µM Tf-D-HKN15 peptides; Group 3 (Tf-D-HKC15) received HBSS buffer containing 0.05% DMSO with 50 µM Tf-D-HKC15 peptides; Group 4 (Tf-D-HKC8) received HBSS buffer containing 0.05% DMSO with 50 µM Tf-D-HKC8 peptides. […] Beginning on the day of inoculation, mouse weight and tumor volume were monitored every 2 days. Mice were monitored for changes in body weight and sacrificed when values fell below 20% of their initial weight; the survival curve was calculated and the final tumor tissues were isolated for biomedical analysis. […]

HKDC1/VDAC1 [5] = target: T1, HKDC1/VDAC1 (Homo sapiens, UniProt P21796); assay: IP/WB association of HKDC1 with VDAC1 in SNK6 cells; format: cell-based; design: endogenous in cells; host or cells: SNK6; conditions: 0.5 µM peptide, 6 h, vs CTL, n = 5 (Fig. 4c, d)
T1 sequence (P21796 2-283 limits assumed): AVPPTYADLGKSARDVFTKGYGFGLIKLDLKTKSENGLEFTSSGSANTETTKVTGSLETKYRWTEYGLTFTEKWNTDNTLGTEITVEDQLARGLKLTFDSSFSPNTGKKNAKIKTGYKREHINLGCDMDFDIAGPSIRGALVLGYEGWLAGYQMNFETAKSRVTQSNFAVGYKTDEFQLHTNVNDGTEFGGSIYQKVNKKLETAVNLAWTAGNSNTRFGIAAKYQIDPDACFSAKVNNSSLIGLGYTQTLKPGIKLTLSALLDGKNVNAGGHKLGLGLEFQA
Experimental: (§3) Immunoprecipitation (IP) and Western Blotting (WB). Cell lysates were pre-cleared by pre-immune IgG plus Protein A agarose beads for 2 hours, and the supernatants were immunoprecipitated by the indicated antibodies and a 50% slurry of Protein A Agarose beads overnight at 4 °C (9). After washing with buffer containing 50 mM Tris, pH 7.5, 150 mM NaCl, 1% NP-40, and 0.5% deoxycholate with protease inhibitors, proteins were released, separated on 10% SDS-PAGE gels, blotted by primary antibodies, and then simultaneously incubated with the differentially labeled species-specific secondary antibodies, anti-RABBIT IRDye™ 800CW (green) and anti-MOUSE (or goat) ALEXA680 (red). Membranes were scanned and quantitated by the ODYSSEY Infrared Imaging System (LI-COR, NE) (10).

HKDC1/VDAC1 [6] = target: T1, HKDC1/VDAC1; assay: IP/WB association of HKDC1 with VDAC1 in HANK1 cells; format: cell-based; design: endogenous in cells; conditions: 0.5 µM peptide, 6 h, compared with CTL group, n = 5 (Fig S3)
Experimental: as §3
(§4) Figure S3. Peptide Tf-D-HKC8 dissociates HKDC1 from VDAC1 in cancer cells, but little effect on normal cells. Different cells, including HMECS, HANK1 and SW480, were treated by either control (CTL) or Tf-D-HKC8 peptide (0.5µM) for 6 hours, and the cells were used for IP/WB analysis. (a) Representative western blotting bands for IP/WB. (b) Protein quantitation for IP/WB for (a), n=5. *, P<0.05, vs CTL group. Results were expressed as mean ± SEM.

HKDC1/VDAC1 [7] = target: T1, HKDC1/VDAC1; assay: IP/WB association of HKDC1 with VDAC1 in SW480 cells; format: cell-based; design: endogenous in cells; conditions: 0.5 µM peptide, 6 h, compared with CTL group, n = 5 (Fig S3)
Experimental: as §3, §4

HKDC1/VDAC1 [8] = target: T1, HKDC1/VDAC1; assay: IP/WB association of HKDC1 with VDAC1 in HMECs; format: cell-based; design: endogenous in cells; conditions: 0.5 µM peptide, 6 h, compared with CTL group, n = 5 (Fig S3)
Experimental: as §3, §4

[9] = read-out: IC50 (µM) SNK6, half-maximal cell death activity, SNK6 cells, peptides 0.1–15 µM, 6 h, PI staining, FACS, mean ± SEM, n in cell (Table 1)

HAIYPRH-ITAVAKRLQQAQKEN [Tf-D-HKC15]
IC50 (MNCs from ENKTL patients): 0.9 ± 0.3 µM
IC50 (SNK6 cells [1]; [9]): 1.2 ± 0.5 µM
IC50 (SNK6 cells [1]; read-out: Peptide IC50 (µM), cell death, SNK6, Human natural killer/T-cell lymphoma/EBV(+), 0.1–15 µM, 6 h (suspension) or 12 h (adherent cells), PI/FACS, mean ± SEM (Table 2)): 1.2 ± 0.3 µM
colony formation (SNK6 cells [2]): 64%
tumor volumes on day 36 (SNK6 xenograft [3]): 63%
tumor volumes on day 48 (SNK6 xenograft [3]): 70%
mouse survival (SNK6 xenograft [4]): 197%
Zta gene expression on tumor tissues (IHC) (Zta): 64%
association of HKDC1 with VDAC1 (HKDC1/VDAC1 [5]): 68%

HAIYPRH-LQQAQKEN [Tf-D-HKC8]
IC50 (MNCs from ENKTL patients): 0.2 ± 0.1 µM
IC50 (SNK6 cells [1]; [9]): 0.3 ± 0.2 µM
colony formation (SNK6 cells [2]): 28%
tumor volumes on day 36 (SNK6 xenograft [3]): 36%
tumor volumes on day 48 (SNK6 xenograft [3]): 32%
mouse survival (SNK6 xenograft [4]): 335%
Zta gene expression on tumor tissues (IHC) (Zta): 28%
association of HKDC1 with VDAC1 in HANK1 cells (HKDC1/VDAC1 [6]): 34%
association of HKDC1 with VDAC1 in SW480 cells (HKDC1/VDAC1 [7]): 67%
association of HKDC1 with VDAC1 in HMECs (HKDC1/VDAC1 [8]): little effect
association of HKDC1 with VDAC1 (HKDC1/VDAC1 [5]): 24%
